# Counter-ions that a name gives are not always drawn.
# Assays:
# PDE4 = PDE4 (Homo sapiens, UniProt Q08499); assay: In-vitro assay for PDE4 enzymes, real-time enzyme-coupled spectrophotometric assay (Table 9); assay type: biochemical; details: human PDE4D; activity class, Table 9; read-out: hPDE4D
# PDE4B = PDE4B (Homo sapiens, UniProt Q07343); assay: In-vitro assay for PDE4 enzymes, real-time enzyme-coupled spectrophotometric assay, PDE4B Activity (Table 10); assay type: biochemical; details: human PDE4B (hPDE4B), enzyme-coupled spectrophotometric assay; read-out: PDE4B Activity, hPDE4B
# Chain of PDE4B (Q07343 whole entry): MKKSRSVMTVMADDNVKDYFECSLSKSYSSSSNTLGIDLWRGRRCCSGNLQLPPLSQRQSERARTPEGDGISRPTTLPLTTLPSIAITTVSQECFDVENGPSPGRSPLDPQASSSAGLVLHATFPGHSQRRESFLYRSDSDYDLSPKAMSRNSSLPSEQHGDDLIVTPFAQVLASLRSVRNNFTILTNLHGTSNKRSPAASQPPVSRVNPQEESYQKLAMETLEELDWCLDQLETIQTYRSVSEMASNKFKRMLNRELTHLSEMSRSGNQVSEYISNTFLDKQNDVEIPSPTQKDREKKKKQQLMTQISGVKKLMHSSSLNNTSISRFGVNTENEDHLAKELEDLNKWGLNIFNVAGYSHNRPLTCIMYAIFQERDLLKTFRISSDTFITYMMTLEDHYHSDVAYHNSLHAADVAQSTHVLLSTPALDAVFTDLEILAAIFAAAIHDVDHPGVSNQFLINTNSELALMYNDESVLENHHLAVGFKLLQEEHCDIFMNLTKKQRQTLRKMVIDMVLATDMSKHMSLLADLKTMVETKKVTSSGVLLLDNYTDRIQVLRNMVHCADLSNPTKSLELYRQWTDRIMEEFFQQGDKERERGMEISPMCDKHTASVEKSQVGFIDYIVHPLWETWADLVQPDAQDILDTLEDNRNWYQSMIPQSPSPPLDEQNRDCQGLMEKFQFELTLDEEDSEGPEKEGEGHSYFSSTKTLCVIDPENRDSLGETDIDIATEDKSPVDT
# Chain of PDE4 (Q08499 whole entry): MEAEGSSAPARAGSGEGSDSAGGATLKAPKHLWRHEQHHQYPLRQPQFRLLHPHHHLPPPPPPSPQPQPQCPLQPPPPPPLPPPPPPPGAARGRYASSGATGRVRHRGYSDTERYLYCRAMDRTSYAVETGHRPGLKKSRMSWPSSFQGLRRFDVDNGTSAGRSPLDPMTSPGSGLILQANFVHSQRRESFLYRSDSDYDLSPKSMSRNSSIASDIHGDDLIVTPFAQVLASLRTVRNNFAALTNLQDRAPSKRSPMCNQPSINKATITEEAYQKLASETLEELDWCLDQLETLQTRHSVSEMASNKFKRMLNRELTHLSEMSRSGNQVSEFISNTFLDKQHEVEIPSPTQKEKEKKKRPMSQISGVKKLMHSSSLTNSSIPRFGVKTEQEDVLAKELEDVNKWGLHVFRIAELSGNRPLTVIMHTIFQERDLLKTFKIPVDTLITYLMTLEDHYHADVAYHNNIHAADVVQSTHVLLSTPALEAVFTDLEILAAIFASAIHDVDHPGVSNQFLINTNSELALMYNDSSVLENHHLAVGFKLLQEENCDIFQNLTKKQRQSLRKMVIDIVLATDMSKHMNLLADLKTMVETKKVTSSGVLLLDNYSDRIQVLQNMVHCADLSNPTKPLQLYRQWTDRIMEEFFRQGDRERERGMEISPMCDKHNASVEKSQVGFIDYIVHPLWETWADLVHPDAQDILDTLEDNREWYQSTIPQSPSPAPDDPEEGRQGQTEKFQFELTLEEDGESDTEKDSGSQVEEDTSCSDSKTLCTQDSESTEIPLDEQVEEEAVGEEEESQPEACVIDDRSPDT
SMILES,IC50 (PDE4) [µM],IC50 (PDE4B) [µM]
"COc1ccc(CN2C[C@@H](O)CC2=O)cc1-c1cccc([N+](=O)[O-])c1 [P-248, (S)-4-Hydroxy-1-(6-methoxy-3′-nitro-biphenyl-3-ylmethyl)-pyrrolidin-2-one]",< 5,< 5
COc1ccc(Cc2ccc(NS(C)(=O)=O)cc2)c(F)c1-c1cccc(C(C)=O)c1 [P-249],< 5,< 5
"COc1ccc(CNS(=O)(=O)c2ccc(NC(C)=O)cc2)c(F)c1-c1cccc(Cl)c1 [P-251, N-{4-[(3′-Chloro-2-fluoro-6-methoxy-biphenyl-3-ylmethyl)-sulfamoyl]-phenyl}-acetamide]",< 5,< 5
"COc1ccc(Cc2ccc(N)nc2)c(F)c1-c1cccc(Cl)c1 [P-252, 5-(3′-Chloro-2-fluoro-6-methoxy-biphenyl-3-ylmethyl)-pyridin-2-ylamine]",< 5,< 5
"COc1ccc(Oc2ccc(NS(C)(=O)=O)cc2)c(F)c1-c1cccc(Cl)c1 [P-254, N-[4-(3′-Chloro-2-fluoro-6-methoxy-biphenyl-3-yloxy)-phenyl]-methanesulfonamide]",5 to 20,< 5
"COc1ccc(Cc2ccc(NS(C)(=O)=O)nc2)c(F)c1-c1cccc(Cl)c1 [P-258, N-[5-(3′-chloro-2-fluoro-6-methoxy-biphenyl-3-ylmethyl)-pyridin-2-yl]-methanesulfonamide]",< 5,< 5
"COc1ccc(Nc2ccc(N)cc2)cc1-c1cccc(C(C)=O)c1 [P-260, 1-[5′-(4-Amino-phenylamino)-2′-methoxy-biphenyl-3-yl]-ethanone hydrochloride]",< 5,5 to 20
"COc1ccc(Cc2ccc(N)cc2)c(F)c1-c1cccc(C(C)=O)c1 [P-261, 1-[3′-(4-Amino-benzyl)-2′-fluoro-6′-methoxy-biphenyl-3-yl]-ethanone; hydrochloride]",< 5,< 5
COc1ccc(Cc2ccc(NC(N)=O)c(O)c2)c(F)c1-c1cccc(Cl)c1 [P-262],< 5,< 5
COc1ccc(Cc2ccc3[nH]c(=O)oc3c2)c(F)c1-c1cccc(Cl)c1 [P-263],< 5,< 5
COc1ccc(Cc2ccc(NS(C)(=O)=O)c(O)c2)c(F)c1-c1cccc(Cl)c1 [P-264],< 5,5 to 20
"COc1ccc(Cc2ccc(S(N)(=O)=O)cc2)cc1-c1cccc(Cl)c1 [P-266, 4-(3′-Chloro-6-methoxy-biphenyl-3-ylmethyl)-benzenesulfonamide]",< 5,< 5
"COc1ccc(Nc2ccc(NS(C)(=O)=O)cc2)cc1-c1cccc(C(C)=O)c1 [P-267, N-[4-(3′-Acetyl-6-methoxy-biphenyl-3-ylamino)-phenyl]-methanesulfonamide]",< 5,< 5
"COc1ccc(Nc2ccc(NC(N)=O)cc2)cc1-c1cccc(C(C)=O)c1 [P-268, [4-(3′-acetyl-6-methoxy-biphenyl-3-ylamino)-phenyl]-urea]",< 5,5 to 20
"COc1ccc(Cc2ccc(NC(N)=O)cc2)c(F)c1-c1cccc(C(C)=O)c1 [P-269, [4-(3′-Acetyl-2-fluoro-6-methoxy-biphenyl-3-ylmethyl)-phenyl]urea]",< 5,< 5
"COc1ccc(Cc2cccc(NC(N)=O)c2)cc1-c1cccc(Cl)c1 [P-270, [3-(3′-Chloro-6-methoxy-biphenyl-3-ylmethyl)-phenyl]-urea]",< 5,5 to 20
COc1ccc(Cc2ccc(C#N)c(F)c2)c(F)c1-c1cccc(Cl)c1 [P-274],< 5,< 5
COc1ccc(Cc2ccc(CN)c(F)c2)c(F)c1-c1cccc(Cl)c1 [P-275],< 5,5 to 20
"COc1ccc(Cc2ccc(N)nc2)c(F)c1-c1cccc(C(C)=O)c1 [P-277, 1-[3′-(6-Amino-pyridin-3-ylmethyl)-2′-fluoro-6′-methoxy-biphenyl-3-yl]-ethanone]",< 5,< 5

SMILES,IC50 (PDE4) [µM],IC50 (PDE4B) [µM]
COc1ccc(Cc2cnc(N)nc2)c(F)c1-c1cccc(Cl)c1 [P-278],< 5,< 5
CCOc1ccc(Cc2ccc(NC(N)=O)nc2)c(F)c1-c1cccc(Cl)c1 [P-279],< 5,< 5
"COc1ccc(Nc2ccc(N)cc2)cc1-c1cccc(Cl)c1 [P-280, N-(3′-Chloro-6-methoxy-biphenyl-3-yl)-benzene-1,4-diamine; hydrochloride]",< 5,< 5
"COc1ccc(Cc2cccc(C(N)=O)c2)cc1-c1cccc(Cl)c1 [P-282, 3-(3′-Chloro-6-methoxy-biphenyl-3-ylmethyl)-benzamide]",< 5,5 to 20
"COc1ccc(Oc2ccc(N)cc2)c(F)c1-c1cccc(C(C)=O)c1 [P-283, 4-(3′-Acetyl-2-fluoro-6-methoxy-biphenyl-3-yloxy)-phenyl-amine hydrochloride salt]",< 5,< 5
"COc1ccc(Cc2cnc(NS(C)(=O)=O)nc2)c(F)c1-c1cccc(C(C)=O)c1 [P-284, N-[5-(3′-Acetyl-2-fluoro-6-methoxy-biphenyl-3-ylmethyl)-pyrimidin-2-yl]-methanesulfonamide]",< 5,< 5
COc1ccc(Cc2ccc3nc(N)oc3c2)c(F)c1-c1cccc(Cl)c1 [P-285],< 5,5 to 20
COc1ccc(Cc2ccc(CNC(N)=O)c(F)c2)c(F)c1-c1cccc(Cl)c1 [P-287],< 5,< 5
COc1ccc(Cc2cnc(NC(N)=O)nc2)c(F)c1-c1cccc(Cl)c1 [P-291],< 5,< 5
COc1ccc(Cc2cnc(NS(C)(=O)=O)nc2)c(F)c1-c1cccc(Cl)c1 [P-292],< 5,5 to 20
COc1ccc(Cc2ccc(CN)c(O)c2)c(F)c1-c1cccc(Cl)c1 [P-296],< 5,21 to 40
COc1ccc(Cc2ccc(CNS(C)(=O)=O)c(O)c2)c(F)c1-c1cccc(Cl)c1 [P-299],< 5,5 to 20
COc1ccc(Cc2ccc(CNC(C)=O)c(F)c2)c(F)c1-c1cccc(Cl)c1 [P-300],< 5,< 5
"COc1ccc(Cc2ccc(N(C)C)cc2)c(F)c1-c1cccc(Cl)c1 [P-303, [4-(3′-Chloro-2-fluoro-6-methoxy-biphenyl-3-ylmethyl)-phenyl]-dimethyl-amine]",< 5,< 5
"COc1ccc(Cc2ccc(C(N)=O)cc2)c(F)c1-c1cccc(C(C)=O)c1 [P-305, 4-(3′-Acetyl-2-fluoro-6-methoxy-biphenyl-3-ylmethyl)-benzamide]",< 5,5 to 20
"CNc1ccc(Cc2ccc(OC)c(-c3cccc(Cl)c3)c2F)cc1 [P-311, [4-(3′-Chloro-2-fluoro-6-methoxy-biphenyl-3-ylmethyl)-phenyl]-methyl-amine]",< 5,< 5
CC(=O)Nc1ccc(Cc2ccc(OC(F)F)c(-c3cccc(Br)c3)c2F)cc1 [P-313],< 5,< 5
NC(=O)Nc1ccc(Cc2ccc(OC(F)F)c(-c3cccc([N+](=O)[O-])c3)c2F)cc1 [P-316],< 5,< 5

# Further lines, results first:
IC50 (PDE4) [µM],IC50 (PDE4B) [µM],SMILES
< 5,< 5,CCNC(=O)Nc1ccc(Cc2ccc(OC)c(-c3cccc(Cl)c3)c2F)cc1 [P-250]
< 5,< 5,"COc1ccc(Cc2cccc(N)c2)cc1-c1cccc(Cl)c1 [P-255, 3-(3′-Chloro-6-methoxy-biphenyl-3-ylmethyl)-phenylamine]"
< 5,5 to 20,COc1ccc(Cc2ccc(N)c(O)c2)c(F)c1-c1cccc(Cl)c1 [P-256]
< 5,< 5,COc1ccc(Cc2ccc(NC(N)=O)nc2)c(F)c1-c1cccc(Cl)c1 [P-259]
< 5,< 5,"COc1ccc(Cc2cnc(N)nc2)c(F)c1-c1cccc(C(C)=O)c1 [P-281, 1-[3′-(2-Amino-pyrimidin-5-ylmethyl)-2′-fluoro-6′-methoxy-biphenyl-3-yl]-ethanone hydrochloride]"
< 5,21 to 40,COc1ccc(Cc2ccc(C#N)c(O)c2)c(F)c1-c1cccc(Cl)c1 [P-295]
< 5,5 to 20,COc1ccc(Cc2ccc(NS(C)(=O)=O)nc2)c(F)c1-c1cccc(C(C)=O)c1 [P-297]
< 5,< 5,COc1ccc(Cc2ccc(CNC(N)=O)c(O)c2)c(F)c1-c1cccc(Cl)c1 [P-301]
< 5,< 5,COc1ccc(Cc2ccc(CNC(C)=O)c(O)c2)c(F)c1-c1cccc(Cl)c1 [P-302]
< 5,< 5,COc1ccc(Cc2ccc(S(N)(=O)=O)cc2)c(F)c1-c1cccc(C(C)=O)c1 [P-304]
< 5,< 5,"CCOc1ccc(Cc2ccc(OC)c(-c3cccc(Cl)c3)c2F)s1 [P-310, 2-(3′-Chloro-2-fluoro-6-methoxy-biphenyl-3-ylmethyl)-5-ethoxythiophene]"
< 5,< 5,"CCNC(=O)Nc1ncc(Cc2ccc(OC)c(-c3cccc(C(C)=O)c3)c2F)cn1 [P-315, 1-[5-(3′-Acetyl-2-fluoro-6-methoxy-biphenyl-3-ylmethyl)-pyrimidin-2-yl]-3-ethyl-urea]"
< 5,< 5,Nc1ccc(Cc2ccc(OC(F)F)c(-c3cccc(Br)c3)c2F)cc1 [P-317]
< 5,< 5,CCNc1ccc(Cc2ccc(OC)c(-c3cccc(Cl)c3)c2F)cn1 [P-318]
< 5,< 5,NC(=O)Nc1ccc(Cc2ccc(OC(F)F)c(-c3cccc(Br)c3)c2F)cc1 [P-323]
< 5,< 5,"COc1ccc(Cc2cnc(N(C)C)nc2)c(F)c1-c1cccc(C(C)=O)c1 [P-325, 1-[3′-(2-Dimethylamino-pyrimidin-5-ylmethyl)-2′-fluoro-6′-methoxy-biphenyl-3-yl]-ethanone]"
